Entries after “also recorded” stand apart in the source; their conditions may differ.
Tests used:
[1] = target: T1, catalytic domain of human PARP14 (residues 1611 to 1801) with NanoLuc tag (Homo sapiens, UniProt Q460N5); assay: NanoLuc assay for the degradation of PARP14 (NanoLuc-tagged PARP14 overexpressed in HEK-293T cells, 2 hours); format: cell-based; conditions: Assay A (Example A): NanoLuc-tagged PARP14 degradation in HEK-293T cells, read-out: DC50
T1 construct: expressed in transfected cells; host or cells: HEK-293T cells (ATCC), pcDNA3.1(-) vector
T1 sequence (Q460N5 1611-1801): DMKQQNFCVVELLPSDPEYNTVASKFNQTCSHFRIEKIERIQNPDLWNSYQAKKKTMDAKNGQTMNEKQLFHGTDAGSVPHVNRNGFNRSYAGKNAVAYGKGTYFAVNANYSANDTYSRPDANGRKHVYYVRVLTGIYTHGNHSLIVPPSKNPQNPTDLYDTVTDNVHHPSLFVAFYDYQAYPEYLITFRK

[2] = test system: Alternaria asthma mouse model; assay: Alternaria asthma mouse model: cell counts and cytokines in BALF; format: in vivo; conditions: Alternaria-challenged male Balb/c mice, 30, 100, 300, 1000 mg/kg once daily for 7 days by oral gavage, vs vehicle control (P<0.05), dose-dependent starting from 100 mg/kg
Method: The effect of Compound 64 was studied in an Alternaria asthma mouse model. On days 1-5, male Balb/c mice under isoflurane anesthesia were challenged by instilling a solution of 5 μg (protein weight) Alternaria in 40 μL of PBS into each nostril. Sham-treated mice were administered 40 μL of PBS into each nostril. Compound 64 was administered two days prior to Alternaria challenge (defined day as day −1) and animals were treated with vehicle (0.5% methylcellulose+0.2% Tween 20) or Compound Y (30, 100, 300, 1000 mg/kg) once daily for 7 days (defined as day −1 to day 5) by oral gavage. Total and differential cell counts of the BALF fluid samples were measured using a XT-2000iV analyzer (Sysmex). Cytokine concentrations of BALF supernatant were measured in samples from all groups using ELISA kit (Biotechne, UK).
Statistical significance is calculated using one-way ANOVA followed by Dunnett's post-tests in which the treatment groups were compared to vehicle control (P<0.05).

SMILES	DC50 [1]	other results
O=C1CCC(Nc2ccc(NC3CCN(CCN4CCC(COc5cc(F)c6c(=O)[nH]c(CSC7CCOCC7)nc6c5)CC4)CC3)cc2)C(=O)N1 (centres unmarked) [Example 94, 3-((4-((1-(2-(4-(((5-fluoro-4-oxo-2-(((tetrahydro-2H-pyran-4-yl)thio)methyl)-3,4-dihydroquinazolin-7-yl)oxy)methyl)piperidin-1-yl)ethyl)piperidin-4-yl)amino)phenyl)amino)piperidine-2,6-dione]	< 100 nM	–
O=C1CCC(Nc2ccc(N3CC4CCC(C3)N4CCN3CCC(COc4cc(F)c5c(=O)[nH]c(CSC6CCOCC6)nc5c4)CC3)cc2)C(=O)N1 (centres unmarked) [Example 95, 3-((4-(8-(2-(4-(((5-fluoro-4-oxo-2-(((tetrahydro-2H-pyran-4-yl)thio)methyl)-3,4-dihydroquinazolin-7-yl)oxy)methyl)piperidin-1-yl)ethyl)-3,8-diazabicyclo[3.2.1]octan-3-yl)phenyl)amino)piperidine-2,6-dione]	< 100 nM	–
O=C1CCC(Nc2ccc(N3C4CCC3CN(CCN3CCC(COc5cc(F)c6c(=O)[nH]c(CSC7CCOCC7)nc6c5)CC3)C4)cc2)C(=O)N1 (centres unmarked) [Example 121]	< 100 nM	–
O=C1CCC(Nc2ccc(N3CCN(C4CCC(COc5cc(F)c6c(=O)[nH]c(CSC7CCOCC7)nc6c5)CC4)CC3)cc2)C(=O)N1 (centres unmarked) [Example 124]	< 100 nM	–

The next lines start with results.

DC50 [1]	SMILES	other results
< 100 nM	O=C1CCC(Nc2ccc(N3CCN(CCN4CCC(COc5cc(F)c6c(=O)[nH]c(CSC7CCOCC7)nc6c5)CC4)CC3)c(F)c2)C(=O)N1 (racemic) [Example 64, 3-((3-fluoro-4-(4-(2-(4-(((5-fluoro-4-oxo-2-(((tetrahydro-2H-pyran-4-yl)thio)methyl)-3,4-dihydroquinazolin-7-yl)oxy)methyl)piperidin-1-yl)ethyl)piperazin-1-yl)phenyl)amino)piperidine-2,6-dione]	cytokine IL-4 in BALF ([2]; ELISA of BALF supernatant): significantly reduces; cytokine IL-5 in BALF ([2]; ELISA of BALF supernatant): significantly reduces; cytokine IL-33 in BALF ([2]; ELISA of BALF supernatant): significantly reduces; eosinophils in BALF [2]: significantly reduces; total cell counts in BALF (Alternaria-induced cell infiltration) [2]: significantly reduces; also recorded: dose-dependent reduction
< 100 nM	O=C1CCC(Nc2ccc(N3CCN(CCN4CCC(COc5cc(F)c6c(=O)[nH]c(CC7CCCC7)nc6c5)CC4)CC3)cc2)C(=O)N1 (centres unmarked) [Example 96, 3-((4-(4-(2-(4-(((2-(cyclopentylmethyl)-5-fluoro-4-oxo-3,4-dihydroquinazolin-7-yl)oxy)methyl)piperidin-1-yl)ethyl)piperazin-1-yl)phenyl)amino)piperidine-2,6-dione]	–
< 100 nM	O=C1CCC(Nc2ccc(OC3CC(CN4CCC(COc5cc(F)c6c(=O)[nH]c(CSC7CCN(CC(F)(F)F)CC7)nc6c5)CC4)C3)cc2)C(=O)N1 (centres unmarked) [Example 109]	–
< 100 nM	O=C1CCC(Nc2ccc(N3CCN(CCN4CCC(COc5cc(F)c6c(=O)[nH]c(CSC7CCOCC7)nc6c5)CC4)CC3C(F)(F)F)cc2)C(=O)N1 (centres unmarked) [Example 122]	–
< 100 nM	CN(c1ccc(NC2CCC(=O)NC2=O)cc1)C1CCN(CCN2CCC(COc3cc(F)c4c(=O)[nH]c(CSC5CCOCC5)nc4c3)CC2)CC1 (centres unmarked) [Example 123]	–

Source: patent US20240101540A1, “TARGETED PROTEIN DEGRADATION OF PARP14 FOR USE IN THERAPY” (Ribon Therapeutics, Inc., priority 2022, published 2024)
